According to US5444151A, “Platelet derived growth factor antagonists” (Ludwig Institute for Cancer Research, priority 1992, dated 1995):
Entries after “also recorded” stand apart in the source; their conditions may differ. Read-outs that look alike come from different tables or passages of the source. Numbered stars: 1 amine (or outer) side, 2 acyl side, 3 side chain; on linkers, the order of the positions; unused ones are H or OH. Square brackets hold non-standard residues; d marks the D form. Ends that are not written are not given here. Peptide text beside a SMILES is read from it. X2 = O=C([C@H](Cc1c(Sc2ccccc2[N+](=O)[O-])[nH]c2ccccc12)N[*:1])[*:2]

Columns and labels:
[1] = molecular target: T1, PDGF-β receptor (Homo sapiens, UniProt P09619); assay: Competition with 125I-PDGF-BB for binding to AG1518 fibroblasts (α receptor down regulated by PDGF-AA preincubation)
T1 construct: cultures of human foreskin fibroblast cell line AG1518; endogenous in cells; host or cells: AG1518 human foreskin fibroblasts (Human Mutant Cell Repository)
Description: (§1) In order to test for receptor binding, cultures of human foreskin fibroblast cell line AG1518 (obtained from the Human Mutant Cell Repository), were grown to confluence in Ham's F-12 medium containing 10% newborn calf serum. Those cells which were to be used in analysis of PDGF-β receptor binding were preincubated for 60 minutes at 37° C. in 0.5 ml/well of Ham's F-12 medium, supplemented with 1 mg/ml of bovine serum albumin (BSA), and 50 ng/ml of PDGF-AA. This combination down regulates PDGF-α receptor, as per Claesson-Welsh et al., J. Biol. Chem. 264: 1742-1747 (1989).
(§2) Cells were prepared for receptor binding analyses by washing with ice cold binding buffer (phosphate buffered saline with 0.9 mM CaCl2, 0.49 mM MgSO4 and 1 mg/ml BSA). The cells were then incubated on ice for 90 minutes with different concentrations (0-100 ug/ml) of synthetic peptides (listed in Table 1, infra), in 0.5 ml of binding buffer per well. […] The labelled ligand was added and then incubated for 60 minutes at 0° C. after which the cells were washed five times with ice cold binding buffer. The washed cells were then lysed for 60 minutes at room temperature in a lysis buffer (1% Triton X-100, 10% glycerol, 20 mM Tris-HCl, pH 7.5). Solubilized radioactivity was determined in a gamma counter. Competing activities of synthetic peptides were compared to standard curves, using unlabelled ligand.
In Table 2, "+++" means <30 μM; "++" from 30-60 μM; "+" 60-150 μM; and "-", >150 μM.

[2] = molecular target: T2, PDGF-α receptor (Homo sapiens, UniProt P16234); assay: Competition with 125I-PDGF-AA for binding to AG1518 fibroblasts; settings: for Receptor competing activity, PDGF-AA binding (in words): AG1518 cells
T2 construct: cultures of human foreskin fibroblast cell line AG1518; endogenous in cells; host or cells: AG1518 human foreskin fibroblasts
Description: as §1, §2

[3] = molecular target: T3, EGF receptor (Homo sapiens, UniProt P00533); assay: Competition with 125I-EGF for binding to AG1518 fibroblasts
T3 construct: cultures of human foreskin fibroblast cell line AG1518; endogenous in cells; host or cells: human foreskin fibroblasts (AG1518)
Description: as §1, §2

[4] = system: human foreskin fibroblasts; assay: Ligand stimulated [3H]thymidine incorporation; type: cell-based; settings: for Effect on ligand stimulated [3H]thymidine incorporation (in words): PDGF-AA, PDGF-BB or EGF stimulation; for [3H]thymidine incorporation, Control / [3H]thymidine incorporation, EGF / [3H]thymidine incorporation, PDGF-AA / [3H]thymidine incorporation, PDGF-BB: peptide present; for [3H]thymidine incorporation, Control: no ligand; for [3H]thymidine incorporation, Control / [3H]thymidine incorporation, EGF / [3H]thymidine incorporation, PDGF-AA / [3H]thymidine incorporation, PDGF-BB / [3H]thymidine incorporation, ligand alone: mean of duplicates; for [3H]thymidine incorporation, EGF: stimulated with EGF; for [3H]thymidine incorporation, PDGF-AA: stimulated with PDGF-AA; for [3H]thymidine incorporation, PDGF-BB: stimulated with PDGF-BB; for [3H]thymidine incorporation, ligand alone: no peptide (unstimulated control 483 cpm)
Source text: The possible role of peptide 16T as an antagonist for PDGF activity in vivo was investigated. Following the methodology of Betsholtz et al., J. Cell Physiol 118: 203-210 (1984), the disclosure of which is incorporated by reference, [^3 H] thymidine incorporation by human fibroblasts in the presence of various peptides was studied.

[5] = molecular target: T4, PDGF-β receptor (Sus scrofa, UniProt A0A8W4FFG6); assay: Autophosphorylation and dimerization of partially purified PDGF-β receptor; type: biochemical, porcine
T4 construct: from Triton X-100 solubilized porcine uterus membranes and purified up to the Mono-Q chromatography step; from tissue; host or cells: porcine uterus membranes
Description: A preparation of PDGF-β receptor, from Triton X-100 solubilized porcine uterus membranes and purified up to the Mono-Q chromatography step of Ronnstrand et al., J. Biol. Chem. 262: 2929-2932 (1987), was made, and the autophosphorylation assay described therein was carried out.
Approximately 100 ng of the receptor was incubated for 5 minutes at 0° C. with peptide 16T or peptide 20, at different concentrations. […] Four ul of 150 μM [^32 P]ATP (containing 5×10^6 cpm of radioactivity) was added, followed by an additional 10 minutes of incubation at 0° C. Incorporation of radioactivity was terminated by adding 5 μl of 15 mM unlabelled ATP and 5 μl of 40 mM phenylphosphate. Samples were cross linked by incubating with 0.5 mM DSS (12.5 mM, in dimethyl sulfoxide) for 30 minutes at room temperature. The cross linking reaction was blocked by adding 50 mM methylammonium chloride, 20 mM Hepes, pH 7.4.

[6] = system: PDGF receptors; assay: PDGF-BB induced receptor dimerization and autophosphorylation in intact cells; type: cell-based, human; settings: PDGF-BB 300 ng/ml, intact fibroblasts
Description: (§3) Confluent human foreskin fibroblast cells were used (25 cm^2 dishes of cultures). The cells were washed twice with binding buffer, as described supra, with 1 mg/ml BSA added thereto. This was followed by 90 minutes of incubation with one of synthetic peptides 16, […], 20 and […] on ice. […] A dimerization assay was then carried out, basically following Eriksson et al., Growth Factors 6: 1-14 (1992). Essentially, receptors were cross linked for 20 minutes at room temperature in 1 mM BS^3 (Bis(sulfosuccinimidyl)suberate) in lysis buffer (0.5% Triton X-100, 0.5% deoxycholate, […], pH 7.4, 150 mM NaCl, 10 mM EDTA, 1 mM PMSF (phenylmethylsulfonyl fluoride), 1% Trasylol (aprotinin), 100 μM ortovandat, a phosphatase inhibitor). Cross linking was quenched by adding 70 mM methylammonium chloride for 10 minutes. Samples were then subjected to SDS gel electrophoresis in 4% slab gels, followed by electroblotting on to nitrocellulose membranes. The blocked membranes were incubated for two hours with affinity purified phosphotyrosine antibodies (Ek et al., J. Biol. Chem. 259: 1145-11152 (1984)), followed by three washes. Blots were then incubated for 45 minutes with peroxidase conjugated, affinity purified swine antirabbit IgG immunoglobulin. After an additional three washes, complexes were visualized using the ECL developing system.

[7] = molecular target: T3, EGF receptor; assay: EGF induced receptor dimerization and autophosphorylation in intact cells; type: cell-based; settings: EGF 300 ng/ml, intact fibroblasts
Description: as §3

[8] = read-out: Inhibitory Activity: ability to compete with PDGF-BB for binding (peptide needed to decrease binding by 50%), AG1518 cells, 0° C., asterisk = homogeneous peptide, otherwise crude
[9] = AG1518 cells, 0° C., asterisk = homogeneous peptide, otherwise crude
[10] = AG1518 cells, competing activity

T2 sequence (P16234 24-1089): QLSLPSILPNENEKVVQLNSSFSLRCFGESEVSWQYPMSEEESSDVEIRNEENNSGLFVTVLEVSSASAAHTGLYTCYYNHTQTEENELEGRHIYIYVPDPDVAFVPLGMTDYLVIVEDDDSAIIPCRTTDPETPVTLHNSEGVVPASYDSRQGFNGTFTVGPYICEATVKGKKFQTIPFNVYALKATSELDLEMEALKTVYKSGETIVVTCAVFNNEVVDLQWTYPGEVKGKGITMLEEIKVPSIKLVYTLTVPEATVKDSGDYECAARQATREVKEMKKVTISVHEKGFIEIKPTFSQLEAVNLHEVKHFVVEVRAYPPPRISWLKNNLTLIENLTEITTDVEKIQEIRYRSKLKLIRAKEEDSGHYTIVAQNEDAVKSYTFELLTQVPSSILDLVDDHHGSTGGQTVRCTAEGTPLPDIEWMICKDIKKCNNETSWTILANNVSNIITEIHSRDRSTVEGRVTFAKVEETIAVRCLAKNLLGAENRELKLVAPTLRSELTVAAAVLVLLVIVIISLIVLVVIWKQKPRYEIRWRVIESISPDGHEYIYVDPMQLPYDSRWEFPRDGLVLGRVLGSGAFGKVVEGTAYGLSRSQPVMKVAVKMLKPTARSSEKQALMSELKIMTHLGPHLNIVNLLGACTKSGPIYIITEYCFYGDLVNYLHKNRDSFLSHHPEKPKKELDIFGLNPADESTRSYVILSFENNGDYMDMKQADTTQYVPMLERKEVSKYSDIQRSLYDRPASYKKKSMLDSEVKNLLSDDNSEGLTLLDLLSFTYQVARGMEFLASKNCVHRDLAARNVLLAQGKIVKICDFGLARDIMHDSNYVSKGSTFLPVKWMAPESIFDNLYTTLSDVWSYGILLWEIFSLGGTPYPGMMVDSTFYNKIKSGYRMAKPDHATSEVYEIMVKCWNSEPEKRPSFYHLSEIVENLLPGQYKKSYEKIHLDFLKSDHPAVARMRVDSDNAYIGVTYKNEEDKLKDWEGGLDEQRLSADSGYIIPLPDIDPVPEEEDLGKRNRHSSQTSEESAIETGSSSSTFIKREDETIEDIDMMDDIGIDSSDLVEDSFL
T3 sequence (P00533 25-1210): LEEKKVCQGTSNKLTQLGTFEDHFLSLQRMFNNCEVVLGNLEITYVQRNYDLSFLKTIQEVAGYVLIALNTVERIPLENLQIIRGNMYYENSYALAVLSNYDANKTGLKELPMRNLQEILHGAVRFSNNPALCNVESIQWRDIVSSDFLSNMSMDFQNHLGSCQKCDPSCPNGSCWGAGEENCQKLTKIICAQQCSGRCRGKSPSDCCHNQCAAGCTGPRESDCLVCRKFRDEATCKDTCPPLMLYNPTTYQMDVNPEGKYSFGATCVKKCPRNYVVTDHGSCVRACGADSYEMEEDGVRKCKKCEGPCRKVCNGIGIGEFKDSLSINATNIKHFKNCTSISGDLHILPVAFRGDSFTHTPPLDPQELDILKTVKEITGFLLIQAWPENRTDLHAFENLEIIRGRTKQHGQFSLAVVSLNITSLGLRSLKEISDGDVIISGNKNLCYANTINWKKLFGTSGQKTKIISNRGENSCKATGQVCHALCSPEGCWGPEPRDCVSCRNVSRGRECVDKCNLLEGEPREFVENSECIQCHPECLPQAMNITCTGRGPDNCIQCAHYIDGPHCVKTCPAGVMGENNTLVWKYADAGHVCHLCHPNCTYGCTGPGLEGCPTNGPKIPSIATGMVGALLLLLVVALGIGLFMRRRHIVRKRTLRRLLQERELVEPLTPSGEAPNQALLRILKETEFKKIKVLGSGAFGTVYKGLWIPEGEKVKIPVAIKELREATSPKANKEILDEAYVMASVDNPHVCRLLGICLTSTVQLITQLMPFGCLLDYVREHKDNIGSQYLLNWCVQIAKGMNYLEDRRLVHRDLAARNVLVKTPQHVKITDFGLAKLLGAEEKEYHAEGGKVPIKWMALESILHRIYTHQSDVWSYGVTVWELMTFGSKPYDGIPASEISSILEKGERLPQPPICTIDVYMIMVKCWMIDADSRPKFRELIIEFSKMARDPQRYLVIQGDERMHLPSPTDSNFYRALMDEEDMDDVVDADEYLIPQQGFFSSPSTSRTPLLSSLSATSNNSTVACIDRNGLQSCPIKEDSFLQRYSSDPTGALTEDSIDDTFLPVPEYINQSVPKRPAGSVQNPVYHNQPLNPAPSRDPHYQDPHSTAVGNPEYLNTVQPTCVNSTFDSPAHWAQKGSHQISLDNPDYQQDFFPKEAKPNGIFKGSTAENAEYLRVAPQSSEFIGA
T1 sequence (P09619 33-1106): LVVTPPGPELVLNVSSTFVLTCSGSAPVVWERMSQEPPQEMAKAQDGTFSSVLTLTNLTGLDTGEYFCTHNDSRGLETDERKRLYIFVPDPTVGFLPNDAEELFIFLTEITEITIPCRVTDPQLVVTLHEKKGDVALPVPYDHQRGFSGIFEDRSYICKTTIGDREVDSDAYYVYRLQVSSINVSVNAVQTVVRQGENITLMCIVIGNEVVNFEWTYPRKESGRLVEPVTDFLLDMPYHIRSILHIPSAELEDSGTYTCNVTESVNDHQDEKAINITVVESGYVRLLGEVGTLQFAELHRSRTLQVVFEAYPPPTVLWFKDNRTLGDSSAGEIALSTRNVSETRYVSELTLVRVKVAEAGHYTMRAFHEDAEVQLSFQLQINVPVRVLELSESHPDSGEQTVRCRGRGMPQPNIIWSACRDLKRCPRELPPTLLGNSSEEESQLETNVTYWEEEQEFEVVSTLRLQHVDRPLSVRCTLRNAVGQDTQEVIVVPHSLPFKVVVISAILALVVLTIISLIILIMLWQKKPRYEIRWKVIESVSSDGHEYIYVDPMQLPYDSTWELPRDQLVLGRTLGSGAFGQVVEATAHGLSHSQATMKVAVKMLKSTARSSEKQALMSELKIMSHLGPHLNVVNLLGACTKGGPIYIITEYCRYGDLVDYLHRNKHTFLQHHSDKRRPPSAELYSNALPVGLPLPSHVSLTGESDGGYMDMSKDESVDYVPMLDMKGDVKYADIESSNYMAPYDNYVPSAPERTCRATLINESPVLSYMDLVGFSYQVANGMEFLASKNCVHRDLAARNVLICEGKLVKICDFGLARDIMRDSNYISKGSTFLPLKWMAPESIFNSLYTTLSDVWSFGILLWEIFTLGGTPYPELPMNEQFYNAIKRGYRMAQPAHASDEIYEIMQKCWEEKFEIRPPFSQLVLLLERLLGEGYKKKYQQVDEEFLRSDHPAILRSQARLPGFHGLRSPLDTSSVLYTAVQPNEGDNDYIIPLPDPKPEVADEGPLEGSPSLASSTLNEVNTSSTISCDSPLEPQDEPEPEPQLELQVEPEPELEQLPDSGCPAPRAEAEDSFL
T4 sequence (A0A8W4FFG6 32-1102): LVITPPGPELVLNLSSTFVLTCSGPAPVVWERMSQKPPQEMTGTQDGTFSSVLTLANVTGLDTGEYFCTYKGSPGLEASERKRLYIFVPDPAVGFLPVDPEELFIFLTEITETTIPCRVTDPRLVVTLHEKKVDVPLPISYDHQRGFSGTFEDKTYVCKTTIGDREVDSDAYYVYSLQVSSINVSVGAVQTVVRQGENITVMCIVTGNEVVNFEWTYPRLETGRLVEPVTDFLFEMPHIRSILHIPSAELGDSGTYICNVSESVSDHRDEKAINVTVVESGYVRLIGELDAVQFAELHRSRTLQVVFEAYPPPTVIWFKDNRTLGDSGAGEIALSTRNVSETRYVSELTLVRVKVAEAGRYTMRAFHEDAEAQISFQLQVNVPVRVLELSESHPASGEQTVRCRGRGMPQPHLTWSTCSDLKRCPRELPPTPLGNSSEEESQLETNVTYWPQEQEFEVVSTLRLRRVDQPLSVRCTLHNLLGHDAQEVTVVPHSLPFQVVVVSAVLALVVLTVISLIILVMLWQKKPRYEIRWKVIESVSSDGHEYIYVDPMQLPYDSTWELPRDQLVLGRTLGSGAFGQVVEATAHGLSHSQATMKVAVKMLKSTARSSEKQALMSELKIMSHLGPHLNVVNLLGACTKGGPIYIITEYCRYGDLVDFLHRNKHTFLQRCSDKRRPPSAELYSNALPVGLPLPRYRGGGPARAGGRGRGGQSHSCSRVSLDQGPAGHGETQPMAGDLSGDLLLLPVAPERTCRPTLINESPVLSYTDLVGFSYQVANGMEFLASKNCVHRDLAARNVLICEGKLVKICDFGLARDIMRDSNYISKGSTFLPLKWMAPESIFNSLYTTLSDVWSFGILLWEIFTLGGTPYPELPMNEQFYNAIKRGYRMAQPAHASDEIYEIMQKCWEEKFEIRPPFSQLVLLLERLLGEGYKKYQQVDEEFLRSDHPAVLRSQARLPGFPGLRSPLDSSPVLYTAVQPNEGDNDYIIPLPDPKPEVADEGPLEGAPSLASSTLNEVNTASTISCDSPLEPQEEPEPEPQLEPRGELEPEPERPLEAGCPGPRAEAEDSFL

ANFLVWPPCVEVQLRPVQVRKIEIVRKKP [Peptide 7]
IC50 [1, 8]: < 30 µM | IC50 ([1]; β receptor, read-out: 50% competition for receptor binding): ~6 µM | IC50 ([2]; α receptor, read-out: 50% competition for receptor binding): ~6 µM

ANFLVWEIVRKKP [Peptide 16]
IC50 [1, 9]: < 30 µM | Receptor competing activity, PDGF-BB binding (in words) [1, 10]: maintained most of the receptor competing activity; also recorded: marginal effect | Receptor competing activity, PDGF-AA binding (in words) [2]: marginal effect | Receptor competing activity, PDGF-AA binding (in words) ([2]; listed as 16*): very low activity | Competition for binding of 125I-EGF to the EGF receptor (in words) [3]: none of peptides 16, 16T, 20 and 20T compete | Effect on ligand stimulated [3H]thymidine incorporation (in words) [4]: did inhibit PDGF-AA and PDGF-BB induced mitogenicity, but also EGF induced mitogenicity | [3H]thymidine incorporation, Control [4]: 241 cpm | [3H]thymidine incorporation, EGF [4]: 216 cpm | [3H]thymidine incorporation, PDGF-AA [4]: 242 cpm | [3H]thymidine incorporation, PDGF-BB [4]: 281 cpm | Amount of peptide giving complete inhibition of dimerization and autophosphorylation ([5]; nearly complete for 16T, complete for 16, about 100 ng receptor, 100 ng PDGF-BB, 40 ul): 20 µg | Effect on dimerization and autophosphorylation (in words) ([5]; peptide 20: concentrations up to 20 μg): intermediate effect

KIEIVRKKPIFKKATVTLEDHLASKC [Peptide 1]
IC50 [1, 8]: > 150 µM

CRPTQVQLRPVQVRKIEIVRKKP [Peptide 2]
IC50 [1, 8]: > 150 µM

PDGF-AA: platelet derived growth factor A chain homodimer
[3H]thymidine incorporation, ligand alone [4]: 677 cpm | Stimulation of [3H]thymidine incorporation by ligand ([4]; no peptide, versus unstimulated control): lower stimulation

CC[C@H](C)[C@H](NC(=O)[C@H](Cc1ccccc1)NC(=O)[C@H](C)NC(=O)[C@@H](N)CCC(=O)O)C(=O)N[C@@H](CCCCN)C(=O)N[C@@H](Cc1c(-c2ccc(SC)cc2)[nH]c2ccccc12)C(=O)N[C@@H](CC(C)C)C(=O)N[C@H](C(=O)N[C@@H](CCCNC(=N)N)C(=O)N[C@@H](CC(N)=O)C(=O)N[C@@H](CCCCN)C(=O)N[C@H](C(=O)N1CCC[C@H]1C(=O)O)C(C)C)C(C)C [*20T, reference compound]
Receptor competing activity, PDGF-BB binding (in words) [1, 10]: did not compete for binding | Receptor competing activity, PDGF-AA binding (in words) [2]: did not compete for binding | Competition for binding of 125I-EGF to the EGF receptor (in words) [3]: none of peptides 16, 16T, 20 and 20T compete | Effect on ligand stimulated [3H]thymidine incorporation (in words) [4]: some non specific inhibition activity | [3H]thymidine incorporation, Control [4]: 456 cpm | [3H]thymidine incorporation, EGF [4]: 515 cpm | [3H]thymidine incorporation, PDGF-AA [4]: 489 cpm | [3H]thymidine incorporation, PDGF-BB [4]: 836 cpm | Effect on PDGF induced autophosphorylation and dimerization (in words) [6]: no effect whatsoever | Effect on EGF induced autophosphorylation and dimerization (in words) [7]: no effect whatsoever

CC[C@H](C)[C@H](NC(=O)[C@H](CCC(=O)O)NC(=O)[C@H](Cc1c(Sc2ccccc2[N+](=O)[O-])[nH]c2ccccc12)NC(=O)[C@@H](NC(=O)[C@H](CC(C)C)NC(=O)[C@H](Cc1ccccc1)NC(=O)[C@H](CC(N)=O)NC(=O)[C@H](C)N)C(C)C)C(=O)N[C@H](C(=O)N[C@@H](CCCNC(=N)N)C(=O)N[C@@H](CCCCN)C(=O)N[C@@H](CCCCN)C(=O)N1CCC[C@H]1C(=O)O)C(C)C [*16NPS] (H-ANFLV[X2]EIVRKKP-OH; N-terminus and C-terminus assumed)
IC50 [1, 9]: < 30 µM | Receptor competing activity, PDGF-BB binding (in words) ([1]; AG1518 cells, general text statements on competing activity placed here, listed as 16 NPS): more active as an antagonist than peptide 16 | Receptor competing activity, PDGF-BB binding (in words) ([1]; AG1518 cells, general text statements on competing activity placed here, listed as 16NPS): increased activity as an antagonist

WPPCVEVQLRPVQVRKIEIVRKKP [Peptide 8]
Receptor competing activity, PDGF-BB binding (in words) [1, 10]: nearly devoid of activity | IC50 [1, 8]: > 150 µM

EAFIKWLVRNKVP [*20, reference compound]
IC50 [1, 9]: > 150 µM

EGF: ligand of the EGF receptor, used as control growth factor
[3H]thymidine incorporation, ligand alone [4]: 2591 cpm
